Some test systems named below: ACHN renal; RXF 393 renal; A498 renal; KM12 colon; NCI-H460 lung; EKVX NSCLC; NCI-H522 lung; OVCAR-4 ovarian; SF-268 CNS; NCI-H226 lung.
Assay in all cases: growth of human tumour cells (NCI), 48 h

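All cell lines were grown in 96-well plates and treated with compound for 48 hours. GI50 marks 50% less growth. TGI is the concentration that stops growth completely.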

The text below walks through data of PubChem BioAssay (NCI).

As for `Cc1ccc(S(=O)OCc2c(C)c(C)c(COS(=O)c3ccc(C)cc3)c(C)c2C)cc1` (centres undefined), the TGI in the assay on ACHN renal, with RXF 393 renal, in the assay with A498 renal, in the assay with KM12 colon, in the assay on NCI-H460 lung and in the assay with EKVX NSCLC was more than 100 µM each time. Moreover, the TGI with NCI-H522 lung, in the assay on OVCAR-4 ovarian, in the assay with SF-268 CNS and in the assay on NCI-H226 lung was more than 100 µM each time.

For the molecule `COC(=O)c1ccc2c(c1)/C(=C\c1cc(Br)c(O)c(Br)c1)C(=O)N2`, the GI50 was 6.27 µM with ACHN renal; 6.06 µM with RXF 393 renal; 3.48 µM in the assay on A498 renal; 6.79 µM in the assay on KM12 colon; 7.57 µM in the assay on NCI-H460 lung; 15.8 µM in the assay on EKVX NSCLC. For the same molecule, the GI50 in the assay with NCI-H522 lung was 4.73 µM; with OVCAR-4 ovarian, 7.96 µM; with SF-268 CNS, 10.1 µM; in the assay with NCI-H226 lung, 14.6 µM. Moreover, the TGI was more than 25 µM with ACHN renal; more than 21.2 µM in the assay with RXF 393 renal; 11 µM with A498 renal; more than 25 µM with KM12 colon; more than 25 µM in the assay with NCI-H460 lung; more than 25 µM with EKVX NSCLC. Moreover, the TGI in the assay with NCI-H522 lung is 19.3 µM; with OVCAR-4 ovarian, more than 25 µM; in the assay on SF-268 CNS, more than 25 µM; in the assay with NCI-H226 lung, more than 25 µM.

Consider `CCN(CC)CCSc1c2ccccc2nc2c(OC)ccc(OC)c12`, for which the TGI in the assay with ACHN renal is more than 23.5 µM; in the assay on RXF 393 renal, 3.94 µM; in the assay with A498 renal, 32.5 µM; with KM12 colon, 16.8 µM; in the assay with NCI-H460 lung, 36.4 µM; in the assay with EKVX NSCLC it was more than 100 µM. For the same molecule, the TGI in the assay with NCI-H522 lung was 19.8 µM; with OVCAR-4 ovarian it was more than 20 µM; in the assay on SF-268 CNS, 26.1 µM; in the assay with NCI-H226 lung it was 50.7 µM.

Consider `CN(C)c1ccc(N=Nc2ccccn2)c(O)c1`, for which the GI50 with ACHN renal was 0.271 µM; in the assay on RXF 393 renal, 0.229 µM; with A498 renal, 3.02 µM; in the assay with KM12 colon, 0.465 µM; with NCI-H460 lung, 0.296 µM; with EKVX NSCLC it was 0.2 µM. The GI50 with NCI-H522 lung was 0.372 µM; in the assay with OVCAR-4 ovarian, 0.164 µM; in the assay with SF-268 CNS it was 0.318 µM; in the assay on NCI-H226 lung, 0.515 µM. For the same molecule, the TGI was more than 100 µM in the assay with ACHN renal; 0.929 µM in the assay on RXF 393 renal; 19.1 µM in the assay on A498 renal; more than 76.9 µM in the assay with KM12 colon; more than 32.1 µM in the assay with NCI-H460 lung; 14.4 µM in the assay with EKVX NSCLC. Also, the TGI in the assay on OVCAR-4 ovarian was 24.6 µM; with SF-268 CNS, more than 100 µM; in the assay with NCI-H226 lung, 8.67 µM.

In the case of `Cc1cc2cc3c(=O)[nH]c(=O)[nH]c3nc2cc1C`, the TGI in the assay on ACHN renal, with RXF 393 renal, in the assay on A498 renal, in the assay on KM12 colon, with NCI-H460 lung and in the assay on EKVX NSCLC was more than 100 µM each time. Besides, the TGI in the assay with NCI-H522 lung, in the assay with OVCAR-4 ovarian, in the assay with SF-268 CNS and in the assay on NCI-H226 lung was more than 100 µM each time.

`Cn1c(Nc2ccc(C(F)(F)F)cc2)nc2cc(Oc3ccnc(-c4ncc(C(F)(F)F)[nH]4)c3)ccc21`: the GI50 in the assay with ACHN renal was 0.0354 µM; in the assay on RXF 393 renal, 0.0544 µM; with A498 renal, 0.0297 µM; in the assay with KM12 colon, 1.3 µM; in the assay with NCI-H460 lung, 0.197 µM; with EKVX NSCLC, 2.33 µM. Further, the GI50 is 0.307 µM with NCI-H522 lung, 1.21 µM in the assay with OVCAR-4 ovarian, 0.966 µM in the assay with SF-268 CNS and 0.492 µM in the assay on NCI-H226 lung. Also, the TGI in the assay on ACHN renal turned out to be 11.7 µM; in the assay with RXF 393 renal, 7.32 µM; in the assay on A498 renal, 0.851 µM; in the assay on KM12 colon it was 12.5 µM; with NCI-H460 lung, 7.61 µM; in the assay on EKVX NSCLC it was 19.1 µM. In addition, the TGI in the assay on NCI-H522 lung was found to be 11 µM; with OVCAR-4 ovarian, 14.4 µM; in the assay on SF-268 CNS, 14.5 µM; in the assay on NCI-H226 lung, 16.5 µM.

With `C=COC(=O)N[C@H]1CCc2cc(OC)c(OC)c(OC)c2-c2ccc(SC)c(=O)cc21`, the TGI is 64.9 µM with ACHN renal; 3.14 µM with RXF 393 renal; 0.395 µM in the assay with A498 renal; 0.0388 µM in the assay with KM12 colon; 0.991 µM in the assay with NCI-H460 lung; more than 100 µM in the assay on EKVX NSCLC. Further, the TGI was less than 0.01 µM with NCI-H522 lung, 92.9 µM with OVCAR-4 ovarian, 44.9 µM in the assay on SF-268 CNS and 0.793 µM with NCI-H226 lung.

For the molecule `O=c1[nH]c2ccc(O)cc2o1`, the TGI with ACHN renal, with RXF 393 renal, with A498 renal, in the assay on KM12 colon, in the assay on NCI-H460 lung and in the assay on EKVX NSCLC was more than 100 µM each time. The TGI in the assay with NCI-H522 lung, in the assay on OVCAR-4 ovarian, in the assay with SF-268 CNS and with NCI-H226 lung was more than 100 µM throughout.

As to `Cc1ccc2c(C3C(C#N)=C(N)Oc4cc5ccccc5cc43)cc(=O)oc2c1` (centres undefined), the GI50 in the assay on ACHN renal is 4.54 µM; in the assay with RXF 393 renal it was 0.671 µM; in the assay with A498 renal it was 4.23 µM; with KM12 colon it was 0.724 µM; in the assay on NCI-H460 lung it was 0.883 µM; with EKVX NSCLC, 4.44 µM. Further, the GI50 with NCI-H522 lung is 0.446 µM; in the assay with OVCAR-4 ovarian, 11.4 µM; in the assay on SF-268 CNS, 3.07 µM; with NCI-H226 lung, 62.1 µM. The TGI was more than 100 µM in the assay on ACHN renal; 6.11 µM in the assay with RXF 393 renal; 86.3 µM in the assay with A498 renal; more than 100 µM in the assay with KM12 colon; 15.5 µM in the assay with NCI-H460 lung; more than 100 µM in the assay with EKVX NSCLC. The TGI is 11.6 µM with NCI-H522 lung, more than 100 µM in the assay with OVCAR-4 ovarian, more than 100 µM with SF-268 CNS and more than 100 µM with NCI-H226 lung.

Turning to `O=[P@@]1(c2ccccc2)O[C@H](COCc2ccccc2)[C@@H](OCc2ccccc2)[C@H](OCc2ccccc2)[C@H]1NCc1ccccc1`, the GI50 was 3.38 µM in the assay with ACHN renal; 3.83 µM with RXF 393 renal; 2.39 µM with A498 renal; 3.21 µM in the assay on KM12 colon; 2.59 µM with NCI-H460 lung; 2.71 µM in the assay on EKVX NSCLC. In addition, the GI50 was 5.75 µM in the assay on NCI-H522 lung, 3.47 µM in the assay on OVCAR-4 ovarian, 3.47 µM in the assay with SF-268 CNS and 3.43 µM in the assay with NCI-H226 lung. Further, the TGI with ACHN renal was more than 100 µM; in the assay on RXF 393 renal it was more than 100 µM; in the assay with A498 renal, 8.99 µM; with KM12 colon it was 47.3 µM; with NCI-H460 lung it was 7.11 µM; in the assay on EKVX NSCLC it was more than 100 µM. Also, the TGI is more than 100 µM in the assay on NCI-H522 lung, 48.9 µM in the assay with OVCAR-4 ovarian, more than 100 µM in the assay on SF-268 CNS and 85.2 µM with NCI-H226 lung.
